Test results published in patent publication US11396523B2, “Proton activated atomic medicine” (priority 2017, dated 2022).

How the values were obtained:
[1] = test system: glioblastoma cell line U87-MG; experiment: in vitro colony assay (survival fraction) after proton beam irradiation; conditions: for cytotoxicity / cell kill compared to the proton beam treatment alone: 8 Gye single fraction protons plus compound, U87 cells exposed 96 hours before irradiation
Procedure: FIG. 1 is a graphic representation of the dose of irradiation (x-axis) versus the log survival fraction (y-axis) of log phase U87 human glioblastoma cells. Three groups were used. […] This molecule is synthesized by replacing the 2 position of the aromatic ring of the nitrogenous base with oxygen-18. When these cells are treated with protons, there is a chemical transmutation at the atomic level where upon the oxygen-18 atom is changed into radioactive fluorine-18.
Physiologic serum concentrations in normal and cancer patients the physiologic serum concentration is ˜0.3-1.2 μM. The cells were irradiated with 2 and 8 Gye with 160 MeV protons single fraction and cell death/survival was determined using a colony assay and calculation of survival fraction.

[2] = large doses, human cancer patients; cited from earlier work

| Compound | increased cell kill ([1]; 0.5 microgram HTd exposed for 96 hours in vitro, 8 Gye single fraction protons, versus protons alone (FIG. 1)) | cytotoxicity / cell kill compared to the proton beam treatment alone [1] | cytotoxicity / cell kill compared to the proton beam treatment alone ([1]; listed as heavy thymidine) | radiation sensitization ([1]; plus a single dose of 8 Gye of protons) | effect on cell survival ([1]; same concentration X time exposure (0.5, 96 hours) plus 8 Gye protons) | concentrations in the serum achieved [2] |
| --- | --- | --- | --- | --- | --- | --- |
| C2-^18O-Thymidine [2-HTd] | about half a log | increased cytotoxicity | greater cell kill | proton specific radiation sensitization | – | – |
| Cc1cn([C@H]2C[C@H](O)[C@@H](CO)O2)c(=O)[nH]c1=O [Thymidine, reference compound] | – | – | – | – | no effect | milli-molar range |
